Laboratory results: patent publication US12371464B2, “Polypeptides and uses thereof” (MEDIMMUNE LIMITED, priority 2020, dated 2025)
Numbered stars: 1 amine (or outer) side, 2 acyl side, 3 side chain; on linkers, the order of the positions; unused ones are H or OH. Bridge positions count the residues as written; N and C are the ends. Side chains are listed from the residue outwards. Peptide text beside a SMILES is read from it. * marks the point of attachment. C20 diacid = O=C(O)CCCCCCCCCCCCCCCCCCC(=O)*; γGlu = O=C(O)[C@H](CCC(=O)[*:2])N[*:1]

Tests used:
[1] = biological target: T1, rat calcitonin receptor (rat CTR) (Rattus norvegicus, UniProt P32214); assay: cAMP production in HEK cells with stable recombinant expression of rat calcitonin receptor (rat CTR); assay type: cell-based; details: cAMP HTRF, assay buffer with 0.1% BSA, 30 minutes
T1 construct: expressed in transfected cells
T1 sequence (P32214 25-516): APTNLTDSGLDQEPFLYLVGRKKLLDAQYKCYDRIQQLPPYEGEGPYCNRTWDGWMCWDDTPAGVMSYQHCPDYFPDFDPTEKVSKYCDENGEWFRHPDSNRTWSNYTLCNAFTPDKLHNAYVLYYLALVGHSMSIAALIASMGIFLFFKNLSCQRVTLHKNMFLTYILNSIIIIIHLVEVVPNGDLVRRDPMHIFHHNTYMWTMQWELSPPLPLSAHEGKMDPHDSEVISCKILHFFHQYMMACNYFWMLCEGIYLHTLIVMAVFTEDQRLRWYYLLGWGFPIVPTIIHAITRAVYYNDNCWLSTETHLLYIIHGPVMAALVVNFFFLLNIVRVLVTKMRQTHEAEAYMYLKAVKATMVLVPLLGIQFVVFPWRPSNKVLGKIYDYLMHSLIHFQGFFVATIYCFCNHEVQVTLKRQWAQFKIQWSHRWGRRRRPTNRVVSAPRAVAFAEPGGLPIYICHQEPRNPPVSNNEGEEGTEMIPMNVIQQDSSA
Description: The functional activities of lipidated pramlintide analogue peptides, such as cAMP production, were tested in 1321N1 cell line with stable recombinant expression of human calcitonin receptor (hCTR) or human amylin receptor (calcitonin receptor co-expressed with receptor activity modifying protein, RAMP3) (hAMYR3) or HEK cells with stable recombinant expression of rat calcitonin receptor (rat CTR) or rat amylin receptor (calcitonin receptor co-expressed with receptor activity modifying protein, RAMP3) (Rat AMYR3). […]
(§1) The test peptide stock was prepared in DMSO and diluted in assay buffer to reach stated concentrations and transferred in duplicates into a 384-black shallow well microtitre assay plate (Corning #3676). Cells were added to the assay plate, incubated at room temperature for 30 minutes and the CAMP level measured using CAMP dynamic 2 HTRF kit (Cisbio, Cat #62AM4PEJ), following the two step protocol as per manufacturer's recommendations. The plates were read on an Envision (Perkin Elmer) using excitation wavelength of 320 nm and emission wavelengths of 620 nm & 665 nm.
Data was transformed to % Delta F as described in the manufacturer's guidelines and analyzed as percent activation of maximal amylin or calcitonin effect by 4-parameter logistic fit to determine EC50 values. […]

[2] = biological target: T2, human amylin receptor (calcitonin receptor co-expressed with receptor activity modifying protein, RAMP3) (hAMYR3) (Homo sapiens, UniProt O60896+P30988); assay: cAMP production in 1321N1 cells with stable recombinant expression of human amylin receptor (hAMYR3); assay type: cell-based; details: cAMP production, 1321N1 cells expressing human amylin3 receptor
T2 construct: expressed in transfected cells
T2 sequence (P30988 25-474): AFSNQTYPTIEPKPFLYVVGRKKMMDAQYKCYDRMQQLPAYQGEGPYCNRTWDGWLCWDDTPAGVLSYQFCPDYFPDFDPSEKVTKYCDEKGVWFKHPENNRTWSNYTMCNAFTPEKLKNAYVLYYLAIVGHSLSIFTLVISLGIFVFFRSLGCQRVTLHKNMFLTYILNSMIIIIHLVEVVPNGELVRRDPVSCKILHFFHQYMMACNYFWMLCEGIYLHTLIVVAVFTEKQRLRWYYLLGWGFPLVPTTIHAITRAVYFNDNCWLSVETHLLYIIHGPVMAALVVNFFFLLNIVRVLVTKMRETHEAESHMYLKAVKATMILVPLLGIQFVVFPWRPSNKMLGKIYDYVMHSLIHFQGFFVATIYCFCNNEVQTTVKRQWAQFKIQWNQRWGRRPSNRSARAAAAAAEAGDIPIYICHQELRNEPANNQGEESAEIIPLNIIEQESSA
T2 sequence (O60896 24-148 partner): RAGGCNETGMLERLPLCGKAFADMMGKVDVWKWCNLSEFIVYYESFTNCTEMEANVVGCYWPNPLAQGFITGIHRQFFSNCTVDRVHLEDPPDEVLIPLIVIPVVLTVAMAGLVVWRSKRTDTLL
Description: The functional activities of lipidated pramlintide analogue peptides, such as cAMP production, were tested in 1321N1 cell line with stable recombinant expression of human calcitonin receptor (hCTR) or human amylin receptor (calcitonin receptor co-expressed with receptor activity modifying protein, RAMP3) (hAMYR3) or HEK cells with stable recombinant expression of rat calcitonin receptor (rat CTR) or rat amylin receptor (calcitonin receptor co-expressed with receptor activity modifying protein, RAMP3) (Rat AMYR3).
Cryopreserved cell stock was thawed rapidly in a water-bath, suspended in assay buffer (0.1% BSA (Sigma #A3059) in HBSS (Sigma #H8264) with 25 mM HEPES, pH 7.4 and containing 0.5 mM IB MX (Sigma #17018)) and spun at 240×g for 5 minutes. Cells were re-suspended in assay buffer at a batch-dependent optimized concentration (e.g. hCTR cells at 0.125×10^5 cells/mL, hAMYR3 cells at 0.125×10^5 cells/mL, rat CTR cells at 1×10^5 cells/mL, rat AMYR3 at 2×10^5 cells/mL).
as §1
Data was transformed to % Delta F as described in the manufacturer's guidelines and analyzed as percent activation of maximal amylin or calcitonin effect by 4-parameter logistic fit to determine EC50 values. The selectivity of a peptide to hAMYR vs hCTR is defined as a ratio of EC50 values at the two receptors.

in vivo = details: male, Sprague-Dawley, rat, 20 nmol/kg
Description: PK studies were performed to determine the half-life (T1/2) of test peptides. T1/2 describes the time taken for the maximum plasma concentration (Cmax) of a test substance to halve its steady-state concentration when in circulation.
The animals were 6-8 weeks old with body weights of 200-300 g on the dosing date. The animals were housed in a 12-hour light/12-hour dark cycle environment and were fasted overnight before dosing. The body weight of the animals were recorded before dosing, 24 h and 48 h post dosing.
Test articles were administered at 20 nmol/kg. Blood samples were collected from each animal via Jugular vein.
The blood samples were transferred into eppendorf low binding tube containing K2EDTA. Above 0.150 mL blood were collected at each time point. Blood samples were centrifuged at 4,000 g for 5 minutes at 4° C. to obtain plasma. The plasma samples were stored frozen at −75±15° C. until analysis.
Concentrations of the test articles in the plasma samples were analyzed using a LC-MS/MS method. […] The pharmacokinetic parameters of test articles were calculated using a non-compartmental approach with Phoenix™ WinNonlin®6.1.
The following pharmacokinetic parameters were calculated, whenever possible from the plasma concentration versus time data: • IV administration: T1/2, C0, AUClast, AUCinf, MRTinf, CI, Vss, Number of Points for Regression. • SC administration: Tmax, Cmax, AUClast, AUCinf, MRTinf, F, Number of Points for Regression.

[3] = Thioflavin T fibrillation assay; assay type: physicochemical; details: 1 mg/mL in 25 mM sodium acetate buffer pH 4.0, 37° C., 6 days, orbital shaking; >144 h = no increase
How it was run: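 Peptides at 1 mg/mL in 25 mM sodium acetate pH 4.0 were mixed with ThT (0.25 mM stock) and held 6 days at 37 °C with intermittent orbital shaking at 500–750 rpm. Fluorescence (ex 444/em 480 nm) was read every 30 min, with buffer baseline correction and 5 replicates. Value: mean time to a detectable fluorescence increase.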

EC50 [1] [nM]	EC50 [2] [nM]	half-life (in vivo; iv) [h]	half-life (in vivo; sc) [h]	Time taken to detect increase in fluorescence intensity [3] [h]	SMILES
4.87	1.32	13	21.6	<5	CC[C@H](C)[C@H](NC(=O)[C@@H]1CCCN1C(=O)CNC(=O)[C@H](Cc1ccccc1)NC(=O)[C@H](CC(N)=O)NC(=O)[C@H](CC(N)=O)NC(=O)[C@H](CO)NC(=O)[C@H](CO)NC(=O)[C@H](Cc1c[nH]cn1)NC(=O)[C@@H](NC(=O)[C@H](CC(C)C)NC(=O)[C@H](Cc1ccccc1)NC(=O)[C@H](CC(N)=O)NC(=O)[C@H](C)NC(=O)[C@H](CC(C)C)NC(=O)[C@H](CCCNC(=N)N)NC(=O)[C@H](CCC(N)=O)NC(=O)[C@@H](NC(=O)[C@H](C)NC(=O)[C@@H]1CSSC[C@H](NC(=O)[C@@H](N)CCCCNC(=O)CC[C@H](NC(=O)CC[C@H](NC(=O)CCCCCCCCCCCCCCCCCCC(=O)O)C(=O)O)C(=O)O)C(=O)N[C@@H](CC(N)=O)C(=O)N[C@@H]([C@@H](C)O)C(=O)N[C@@H](C)C(=O)N[C@@H]([C@@H](C)O)C(=O)N1)[C@@H](C)O)C(C)C)C(=O)N[C@@H](CC(C)C)C(=O)N1CCC[C@H]1C(=O)N1CCC[C@H]1C(=O)N[C@H](C(=O)N[C@@H](CC(N)=O)C(=O)N[C@H](C(=O)NCC(=O)N[C@@H](CO)C(=O)N[C@@H](CCCNC(=N)N)C(=O)N[C@H](C(=O)N[C@@H](Cc1ccc(O)cc1)C(N)=O)[C@@H](C)O)C(C)C)[C@@H](C)O [Peptide 114] (H-K([γGlu-γGlu-C20 diacid])CNTATCATQRLANFLVHSSNNFGPILPPTNVGSRTY-NH2; disulfide 2-7; N-terminus assumed)
22.6	0.703	14.9	20.3	<5	CC[C@H](C)[C@H](NC(=O)[C@H](C)NC(=O)[C@@H]1CCCN1C(=O)[C@H](Cc1ccccc1)NC(=O)[C@H](CC(N)=O)NC(=O)[C@@H]1CCCN1C(=O)[C@H](CO)NC(=O)[C@H](CO)NC(=O)[C@H](Cc1c[nH]cn1)NC(=O)[C@@H](NC(=O)[C@H](CC(C)C)NC(=O)[C@H](Cc1ccccc1)NC(=O)[C@H](CC(N)=O)NC(=O)[C@H](C)NC(=O)[C@H](CC(C)C)NC(=O)[C@H](CCCNC(=N)N)NC(=O)[C@H](CCC(N)=O)NC(=O)[C@@H](NC(=O)[C@H](C)NC(=O)[C@@H]1CSSC[C@H](NC(=O)[C@@H](N)CCCCNC(=O)CC[C@H](NC(=O)CC[C@H](NC(=O)CCCCCCCCCCCCCCCCCCC(=O)O)C(=O)O)C(=O)O)C(=O)N[C@@H](CC(N)=O)C(=O)N[C@@H]([C@@H](C)O)C(=O)N[C@@H](C)C(=O)N[C@@H]([C@@H](C)O)C(=O)N1)[C@@H](C)O)C(C)C)C(=O)N[C@@H](CC(C)C)C(=O)N[C@@H](CO)C(=O)N1CCC[C@H]1C(=O)N[C@H](C(=O)N[C@@H](CC(N)=O)C(=O)N[C@H](C(=O)NCC(=O)N[C@@H](CO)C(=O)N[C@@H](CC(N)=O)C(=O)N[C@H](C(=O)N[C@@H](Cc1ccc(O)cc1)C(N)=O)[C@@H](C)O)C(C)C)[C@@H](C)O [Peptide 115] (H-K([γGlu-γGlu-C20 diacid])CNTATCATQRLANFLVHSSPNFPAILSPTNVGSNTY-NH2; disulfide 2-7; N-terminus assumed)
